Source: PubChem BioAssay AID256 (DTP/NCI, 2004)
Where “and” joins values, the source holds several entries; their conditions need not be identical. Identical values can stand only once. Inconclusive results and toxic doses are left out. How the source made its calls: active means survival T/C of 150% or more; inactive means T/C below 125% in these data.

Test system: CD2F1 mice, L1210 leukemia ip, survival T/C
Assay: NCI In Vivo Anticancer Drug Screen. Data for tumor model L1210 Leukemia (intraperitoneal) in CD2F1 (CDF1) mice
Details: higher = longer survival
Outline: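 Each value reflects a quotient of treated over vehicle control outcomes in mice with a transplanted tumor.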

[1] = endpoint: mean survival time, dose: 12.5 mg/kg/injection, schedule: Q01DX009 (ip), vehicle: saline with Tween-80
[2] = endpoint: mean survival time, dose: 25.0 mg/kg/injection, schedule: Q01DX009 (ip), vehicle: saline with Tween-80
[3] = endpoint: mean survival time, dose: 50.0 mg/kg/injection, schedule: Q01DX009 (ip), vehicle: saline with Tween-80
[4] = endpoint: mean survival time, dose: 100.0 mg/kg/injection, schedule: Q01DX001 (ip), vehicle: saline with Tween-80
[5] = endpoint: mean survival time, dose: 100.0 mg/kg/injection, schedule: Q01DX009 (ip), vehicle: saline with Tween-80
[6] = endpoint: mean survival time, dose: 100.0 mg/kg/injection, schedule: Q04DX002 (ip), vehicle: saline with Tween-80
[7] = endpoint: mean survival time, dose: 100.0 mg/kg/injection, schedule: Q04DX003 (ip), vehicle: saline with Tween-80
[8] = endpoint: mean survival time, dose: 200.0 mg/kg/injection, schedule: Q01DX001 (ip), vehicle: saline with Tween-80
[9] = endpoint: mean survival time, dose: 200.0 mg/kg/injection, schedule: Q01DX009 (ip), vehicle: saline with Tween-80
[10] = endpoint: mean survival time, dose: 200.0 mg/kg/injection, schedule: Q04DX003 (ip), vehicle: saline with Tween-80
[11] = endpoint: mean survival time, dose: 400.0 mg/kg/injection, schedule: Q01DX001 (ip), vehicle: saline with Tween-80
[12] = endpoint: mean survival time, dose: 400.0 mg/kg/injection, schedule: Q04DX002 (ip), vehicle: saline with Tween-80

Measured: T/C

CCC(c1ccc(OC(=O)Cc2ccc(N(CCCl)CCCl)cc2)cc1)C(CC)c1ccc(OC(=O)Cc2ccc(N(CCCl)CCCl)cc2)cc1 (centres undefined)
inactive: endpoint: mean survival time, dose: 3.1 mg/kg/injection, schedule: Q03HX016 (ip), vehicle: saline with Tween-80 94 % of control | endpoint: mean survival time, dose: 3.1 mg/kg/injection, schedule: Q03HX024 (ip), vehicle: saline with Tween-80 100 % of control | endpoint: mean survival time, dose: 6.3 mg/kg/injection, schedule: Q03HX008 (ip), vehicle: saline with Tween-80 88 % of control | endpoint: mean survival time, dose: 6.3 mg/kg/injection, schedule: Q03HX024 (ip), vehicle: saline with Tween-80 91 % of control | [1] 88 % of control | endpoint: mean survival time, dose: 12.5 mg/kg/injection, schedule: Q01DX009 (sc), vehicle: saline with Tween-80 100 % of control | endpoint: mean survival time, dose: 12.5 mg/kg/injection, schedule: Q03HX024 (ip), vehicle: saline with Tween-80 88 % of control | endpoint: mean survival time, dose: 25.0 mg/kg/injection, schedule: Q01DX001 (ip), vehicle: saline with Tween-80 94 % of control | endpoint: mean survival time, dose: 25.0 mg/kg/injection, schedule: Q01DX001 (oral), vehicle: saline with Tween-80 103 % of control | endpoint: mean survival time, dose: 25.0 mg/kg/injection, schedule: Q01DX001 (sc), vehicle: saline with Tween-80 91 % of control | [2] 90 % of control | endpoint: mean survival time, dose: 25.0 mg/kg/injection, schedule: Q01DX009 (oral), vehicle: saline with Tween-80 114 % of control | endpoint: mean survival time, dose: 25.0 mg/kg/injection, schedule: Q01DX009 (sc), vehicle: saline with Tween-80 100 % of control | endpoint: mean survival time, dose: 25.0 mg/kg/injection, schedule: Q03HX024 (ip), vehicle: saline with Tween-80 88 % of control | endpoint: mean survival time, dose: 25.0 mg/kg/injection, schedule: Q04DX003 (ip), vehicle: saline with Tween-80 91 % of control | endpoint: mean survival time, dose: 25.0 mg/kg/injection, schedule: Q08DX002 (ip), vehicle: saline with Tween-80 88 % of control | endpoint: mean survival time, dose: 50.0 mg/kg/injection, schedule: Q01DX001 (oral), vehicle: saline with Tween-80 105 % of control | endpoint: mean survival time, dose: 50.0 mg/kg/injection, schedule: Q01DX001 (sc), vehicle: saline with Tween-80 88 % of control | [3] 88 % of control | endpoint: mean survival time, dose: 50.0 mg/kg/injection, schedule: Q01DX009 (oral), vehicle: saline with Tween-80 94 % of control | endpoint: mean survival time, dose: 50.0 mg/kg/injection, schedule: Q01DX009 (sc), vehicle: saline with Tween-80 97 % of control | endpoint: mean survival time, dose: 50.0 mg/kg/injection, schedule: Q03HX016 (ip), vehicle: saline with Tween-80 88 % of control | endpoint: mean survival time, dose: 50.0 mg/kg/injection, schedule: Q03HX024 (ip), vehicle: saline with Tween-80 88 % of control | endpoint: mean survival time, dose: 50.0 mg/kg/injection, schedule: Q04DX003 (ip), vehicle: saline with Tween-80 88 % of control | endpoint: mean survival time, dose: 50.0 mg/kg/injection, schedule: Q08DX002 (ip), vehicle: saline with Tween-80 90 % of control | endpoint: mean survival time, dose: 80.0 mg/kg/injection, schedule: Q01DX005 (ip), vehicle: saline with Tween-80 96 % of control | endpoint: mean survival time, dose: 80.0 mg/kg/injection, schedule: Q01DX009 (ip), vehicle: saline with Tween-80 93 % of control | [4] 90 % of control and 95 % of control | endpoint: mean survival time, dose: 100.0 mg/kg/injection, schedule: Q01DX001 (oral), vehicle: saline with Tween-80 105 % of control | endpoint: mean survival time, dose: 100.0 mg/kg/injection, schedule: Q01DX001 (sc), vehicle: saline with Tween-80 102 % of control | [5] 90 % of control | endpoint: mean survival time, dose: 100.0 mg/kg/injection, schedule: Q01DX009 (oral), vehicle: saline with Tween-80 101 % of control | endpoint: mean survival time, dose: 100.0 mg/kg/injection, schedule: Q01DX009 (sc), vehicle: saline with Tween-80 100 % of control | [6] 101 % of control | [7] 90 % of control | endpoint: mean survival time, dose: 100.0 mg/kg/injection, schedule: Q08DX002 (ip), vehicle: saline with Tween-80 90 % of control | endpoint: mean survival time, dose: 120.0 mg/kg/injection, schedule: Q01DX005 (ip), vehicle: saline with Tween-80 96 % of control | endpoint: mean survival time, dose: 120.0 mg/kg/injection, schedule: Q01DX009 (ip), vehicle: saline with Tween-80 93 % of control | endpoint: mean survival time, dose: 180.0 mg/kg/injection, schedule: Q01DX005 (ip), vehicle: saline with Tween-80 92 % of control | endpoint: mean survival time, dose: 180.0 mg/kg/injection, schedule: Q01DX009 (ip), vehicle: saline with Tween-80 92 % of control | [8] 90 % of control | endpoint: mean survival time, dose: 200.0 mg/kg/injection, schedule: Q01DX001 (oral), vehicle: saline with Tween-80 102 % of control | endpoint: mean survival time, dose: 200.0 mg/kg/injection, schedule: Q01DX001 (sc), vehicle: saline with Tween-80 97 % of control | [9] 88 % of control | endpoint: mean survival time, dose: 200.0 mg/kg/injection, schedule: Q01DX009 (oral), vehicle: saline with Tween-80 100 % of control | endpoint: mean survival time, dose: 200.0 mg/kg/injection, schedule: Q01DX009 (sc), vehicle: saline with Tween-80 97 % of control | endpoint: mean survival time, dose: 200.0 mg/kg/injection, schedule: Q04DX002 (ip), vehicle: saline with Tween-80 93 % of control | [10] 90 % of control | endpoint: mean survival time, dose: 200.0 mg/kg/injection, schedule: Q08DX002 (ip), vehicle: saline with Tween-80 87 % of control | endpoint: mean survival time, dose: 270.0 mg/kg/injection, schedule: Q01DX005 (ip), vehicle: saline with Tween-80 96 % of control | endpoint: mean survival time, dose: 270.0 mg/kg/injection, schedule: Q01DX009 (ip), vehicle: saline with Tween-80 90 % of control | [11] 90 % of control | endpoint: mean survival time, dose: 400.0 mg/kg/injection, schedule: Q01DX001 (oral), vehicle: saline with Tween-80 103 % of control | endpoint: mean survival time, dose: 400.0 mg/kg/injection, schedule: Q01DX001 (sc), vehicle: saline with Tween-80 97 % of control | endpoint: mean survival time, dose: 400.0 mg/kg/injection, schedule: Q01DX009 (oral), vehicle: saline with Tween-80 96 % of control | [12] 93 % of control | endpoint: mean survival time, dose: 400.0 mg/kg/injection, schedule: Q08DX002 (ip), vehicle: saline with Tween-80 90 % of control | endpoint: mean survival time, dose: 405.0 mg/kg/injection, schedule: Q01DX005 (ip), vehicle: saline with Tween-80 93 % of control | endpoint: mean survival time, dose: 405.0 mg/kg/injection, schedule: Q01DX009 (ip), vehicle: saline with Tween-80 92 % of control | endpoint: mean survival time, dose: 800.0 mg/kg/injection, schedule: Q01DX001 (ip), vehicle: saline with Tween-80 88 % of control and 90 % of control | endpoint: mean survival time, dose: 800.0 mg/kg/injection, schedule: Q01DX001 (oral), vehicle: saline with Tween-80 97 % of control | endpoint: mean survival time, dose: 800.0 mg/kg/injection, schedule: Q01DX001 (sc), vehicle: saline with Tween-80 90 % of control

ON1C=CC2C=CC1c1ccccc12 (centres undefined)
inactive: endpoint: median survival time, dose: 50.0 mg/kg/injection, schedule: Q04DX002 (ip), vehicle: saline with Tween-80 100 % of control | endpoint: median survival time, dose: 100.0 mg/kg/injection, schedule: Q04DX002 (ip), vehicle: saline with Tween-80 88 % of control | endpoint: median survival time, dose: 200.0 mg/kg/injection, schedule: Q04DX002 (ip), vehicle: saline with Tween-80 88 % of control

Brc1cccc2c1CCCC2
inactive: [7] 97 % of control | [10] 95 % of control | endpoint: mean survival time, dose: 400.0 mg/kg/injection, schedule: Q04DX003 (ip), vehicle: saline with Tween-80 103 % of control

COC(=O)COS(=O)(=O)c1ccc(C)cc1
inactive: [4] 95 % of control | [8] 96 % of control | [11] 100 % of control

O=C(Nc1ccc(Br)cn1)Nc1cccc(Cl)c1Cl
inactive: [3] 94 % of control | [5] 101 % of control | [9] 105 % of control

COc1ccc(NC(=O)Nc2ccccc2C)c(Cl)c1
inactive: endpoint: mean survival time, dose: 25.0 mg/kg/injection, schedule: Q04DX002 (ip), vehicle: saline with Tween-80 94 % of control | endpoint: mean survival time, dose: 50.0 mg/kg/injection, schedule: Q04DX002 (ip), vehicle: saline with Tween-80 98 % of control | [6] 86 % of control and 90 % of control | [12] 86 % of control

COc1cc2cc(c1Cl)N(C)C(=O)CC(OC(=O)C(C)C)C1(C)OC1C(C)C1CC(O)(NC(=O)O1)C(OC)/C=C/C=C(C)C2 (centres undefined)
inactive: endpoint: mean survival time, dose: 3.8 micrograms/kg/injection, schedule: Q01DX009 (ip), vehicle: saline + alcohol 100 % of control | endpoint: mean survival time, dose: 7.5 micrograms/kg/injection, schedule: Q01DX009 (ip), vehicle: saline + alcohol 97 % of control | endpoint: mean survival time, dose: 15.0 micrograms/kg/injection, schedule: Q01DX009 (ip), vehicle: saline + alcohol 114 % of control | endpoint: mean survival time, dose: 30.0 micrograms/kg/injection, schedule: Q01DX009 (ip), vehicle: saline + alcohol 111 % of control | endpoint: mean survival time, dose: 60.0 micrograms/kg/injection, schedule: Q01DX009 (ip), vehicle: saline + alcohol 111 % of control

Nc1nc(OCc2ccccc2)ncc1C(=O)NCC(=O)O
inactive: [1] 105 % of control | [2] 100 % of control | [3] 104 % of control

O=C1c2ccccc2C(=O)c2c(NCCCNCCO)ccc(NCCCNCCO)c21
inactive: [1] 104 % of control | [2] 96 % of control | [3] 102 % of control
